The text below walks through data of patent US20090042949A1, “Indoles Useful in the Treatment of Inflammation” (priority 2005, published 2009).

The target of this experiment is T1, mPGES-1 (Homo sapiens, UniProt O14684).
T1 construct: made in house; host or cells: E. coli
T1 sequence (O14684 1-152): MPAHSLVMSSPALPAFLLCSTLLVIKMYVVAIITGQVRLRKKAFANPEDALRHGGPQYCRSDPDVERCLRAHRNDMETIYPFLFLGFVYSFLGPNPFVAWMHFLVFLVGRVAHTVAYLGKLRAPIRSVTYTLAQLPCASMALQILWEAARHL
The experiment in a line: mPGES-1 biological test (conversion of PGH2 to PGE2, HPLC analysis). The class given is biochemical. The following applies: mPGES-1 expressed in E. coli, membrane fraction; 25 min preincubation with inhibitor, 60 s with PGH2, room temperature. The protocol:
In the assay mPGES-1 catalyses the reaction where the substrate PGH2 is converted to PGE2. mPGES-1 is expressed in E. coli and the membrane fraction is dissolved in 20 mM NaPi-buffer pH 8.0 and stored at −80° C. In the assay mPGES-1 is dissolved in 0.1 M KPi-buffer pH 7.35 with 2.5 mM glutathione. The stop solution consists of H2O/MeCN (7/3), containing FeCl2 (25 mM) and HCl (0.15 M). The assay is performed at room temperature in 96-well plates. Analysis of the amount of PGE2 is performed with reversed phase HPLC (Waters 2795 equipped with a 3.9×150 mm C18 column). The mobile phase consists of H2O/MeCN (7/3), containing TFA (0.056%), and absorbance is measured at 195 nm with a Waters 2487 UV-detector.
The following is added chronologically to each well: • 1. 100 μL mPGES-1 in KPi-buffer with glutathione. Total protein concentration: 0.02 mg/mL. • 2. 1 μL inhibitor in DMSO. Incubation of the plate at room temperature for 25 minutes. • 3. 4 μL of a 0.25 mM PGH2 solution. Incubation of the plate at room temperature for 60 seconds. • 4. 100 μL stop solution. • 180 μL per sample is analyzed with HPLC.
The IC50 is the concentration that inhibits the measured activity by half. Low values mean higher potency, high ones lower potency. In turn, `CC(C)Oc1ccc(-n2c(C(=O)NS(C)(=O)=O)c(Cl)c3cc(-c4ccc(C(F)(F)F)cn4)ccc32)cc1` [Example 13, N-[3-Chloro-1-(4-isopropoxyphenyl)-5-(5-trifluoromethylpyridin-2-yl)indole-2-carbonyl]methanesulfonamide] displayed an IC50 of 2700 nM.

Compound `CC(C)(C)c1ccc(-c2ccc3c(c2)cc(C(=O)Nn2cnnc2)n3-c2ccc(OC3CCCC3)cc2)cc1` [Example 12, 5-(4-tert-Butylphenyl)-1-(4-cyclopentyloxyphenyl)indole-2-carboxylic acid[1,2,4]triazol-4-ylamide] returned an IC50 of 550 nM. In the case of `CN(CC(=O)O)C(=O)c1cc2cc(-c3ccc(C(C)(C)C)cc3)ccc2n1-c1ccc(OC2CCCC2)cc1` [Example 5, {[5-(4-tert-Butylphenyl)-1-(4-cyclopentyloxyphenyl)indole-2-carbonyl]-methylamino}acetic acid], the IC50 is 740 nM. In the case of `CC(C)(C)c1ccc(-c2ccc3c(c2)cc(C(=O)NCC(=O)O)n3-c2ccc(OC3CCCC3)cc2)cc1` [Example 4, {[5-(4-tert-Butylphenyl)-1-(4-cyclopentyloxyphenyl)indole-2-carbonyl]-amino}acetic acid], it took 1900 nM to reach half-maximal inhibition (IC50). `CC(C)(C)c1ccc(-c2ccc3c(c2)cc(C(=O)NCCS(=O)(=O)O)n3-c2ccc(OC3CCCC3)cc2)cc1` [Example 2, 2-{[5-(4-tert-Butylphenyl)-1-(4-cyclopentyloxyphenyl)indole-2-carbonyl]-amino}ethanesulfonic acid] showed an IC50 of 660 nM.
